The source of these data is ChEMBL document CHEMBL3832029, “DailyMed|setid=517810a4-76bb-4739-893f-1f2ba94a5d0c | ZENATANE -isotretinoin capsule, gelatine coated”.

“And” between values parts separate entries of the source, which are not always exact repeats. Equal values may be shown once.

Common to all, as to format: ADME, organism-based
Data set [1] deals with Homo sapiens. Nature of the data set: (§1) Mean pharmacokinetics parameters for Isotretinoin following single oral administration of Isotretinoin to healthy subjects. Set-up: dose 80 mg, route oral. As to conditions: in vivo, po, dosed compound id 16, dosed compound name ISOTRETINOIN, regimen Single dose, tissue Plasma.
Data set [2] is described as follows: as §1. To be noted: human, in vivo, dietary status Fed, dosed compound id 16, dosed compound name ISOTRETINOIN, regimen Single dose, tissue Plasma; for AUC: po, 80 mg. Set-up: dose 80 mg, route oral.
The test system of data set [3] is Homo sapiens. Nature of the data set: (§2) Steady-state pharmacokinetic parameters of Isotretinoin following multiple oral administration of Isotretinoin to 38 pediatric patients, […], after a non-standardised meal. Set-up: route oral. As to conditions: in vivo, po, dietary status Fed, dosed compound id 16, dosed compound name ISOTRETINOIN, regimen Multiple dose, tissue Plasma.

The nature of data set [4]: as §2. Also noted: route oral. As to conditions: human, in vivo, dietary status Fed, dosed compound id 16, dosed compound name ISOTRETINOIN, regimen Multiple dose, tissue Plasma.
Setting [5] is: dietary status Fasting, dose 80 mg.

For `CC1=C(/C=C/C(C)=C/C=C/C(C)=C\C(=O)O)C(C)(C)CCC1` [ISOTRETINOIN], the Tmax – broadly, the time at which the peak concentration occurs – with Homo sapiens [1] (setting [5]) worked out at 3.2 h; with Homo sapiens [1] (dietary status Fed), 6 h; in data set [2] (dose 80 mg, route oral), 5.3 h; in data set [4] (route oral), 4 h. Further, in the data set with Homo sapiens [1] (setting [5]), the t1/2 stood at 21 h. Moreover, the AUC(0 to inf) with Homo sapiens [1] (dietary status Fasting) was 3700 ng·h/mL; with Homo sapiens [1] (dietary status Fed), 10000 ng·h/mL. Also, the Cmax (commonly the peak of the concentration-time curve) in the data set on Homo sapiens [1] (dietary status Fasting) was 301 ng/mL; in the data set with Homo sapiens [1] (dietary status Fed) it was 862 ng/mL and 573.25 ng/mL; in data set [4] (po), 732 ng/mL. Further, the AUC (usually the area under the concentration-time curve, a measure of exposure) in data set [2] (read-out: AUC(0-12)) was 3030 ng·h/mL; in data set [2] (read-out: AUC(0-24)), 6000 ng·h/mL; in data set [4] (po, read-out: AUC(0-12)), 5080 ng·h/mL. The half-life (commonly the time needed for the level to fall by half in the phase considered) in data set [2] (dose 80 mg, route oral) was 21 h; in data set [4] (route oral) it was 15.7 h. Moreover, the Css min in the data set with Homo sapiens [3] is given as 352.32 ng/mL. Also, in data set [4] (route oral), the CL/F (in general, the apparent clearance, not corrected for the fraction that reaches the circulation) was 299 mL/min.
